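A five-concentration, 48-hour dose response in 96-well plates underlies each endpoint, interpolated linearly between surrounding concentrations. Here, GI50 denotes the concentration required for 50% inhibition of growth.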 Calls of active or inactive are those of the source. Cut-off read from the data, not from the text of the source: active = GI50 up to about 1.1 µM and inactive = higher.
Assays:
Test in all cases: NCI-60 cell line screen, 48 h
SN12C = test system: SN12C
SNB-75 = test system: SNB-75
A498 = test system: A498
HOP-92 = test system: HOP-92
NCI-H522 = test system: NCI-H522
UACC-62 = test system: UACC-62
LOX IMVI = test system: LOX IMVI
786-0 = test system: 786-0
SR = test system: SR
OVCAR-4 = test system: OVCAR-4
ACHN = test system: ACHN
SF-295 = test system: SF-295
OVCAR-8 = test system: OVCAR-8
A549 = test system: A549
Malme-3M = test system: Malme-3M
SW-620 = test system: SW-620
HOP-62 = test system: HOP-62
UACC-257 = test system: UACC-257
HCT-15 = test system: HCT-15
T47D = test system: T47D

Row | SMILES | GI50 (SN12C) | GI50 (SNB-75) | GI50 (A498) | GI50 (HOP-92) | GI50 (NCI-H522) | GI50 (UACC-62) | GI50 (LOX IMVI) | GI50 (786-0) | GI50 (SR) | GI50 (OVCAR-4) | GI50 (ACHN) | GI50 (SF-295) | GI50 (OVCAR-8) | GI50 (A549) | GI50 (Malme-3M) | GI50 (SW-620) | GI50 (HOP-62) | GI50 (UACC-257) | GI50 (HCT-15) | GI50 (T47D)
1 | COc1nc2c(nc(N)n2C2OC(CO)C(O)C(O)C2O)c(=O)[nH]1 (centres undefined) | > 100 µM (inactive) | > 100 µM (inactive) | > 100 µM (inactive) | > 100 µM (inactive) | > 100 µM (inactive) | > 100 µM (inactive) | > 100 µM (inactive) | > 100 µM (inactive) | > 100 µM (inactive) | > 100 µM (inactive) | > 100 µM (inactive) | > 100 µM (inactive) | > 100 µM (inactive) | > 100 µM (inactive) | > 100 µM (inactive) | > 100 µM (inactive) | > 100 µM (inactive) | > 100 µM (inactive) | – | –
2 | N=C(N)NS(=O)(=O)c1ccc(NC(=O)c2cccn3c(=O)c4ccccc4nc23)cc1 | 70.8 µM (inactive) | > 100 µM (inactive) | > 100 µM (inactive) | > 100 µM (inactive) | 35 µM (inactive) | 32.9 µM (inactive) | 33.7 µM (inactive) | > 100 µM (inactive) | 24.5 µM (inactive) | 41.6 µM (inactive) | 81.8 µM (inactive) | 85.5 µM (inactive) | 84.5 µM (inactive) | 45.6 µM (inactive) | > 100 µM (inactive) | 51.5 µM (inactive) | > 100 µM (inactive) | 19.7 µM (inactive) | – | –
3 | O=S(=O)(SCc1ccccc1)C(c1ccccc1)c1ccccc1 | 24.1 µM (inactive) | 30.3 µM (inactive) | 29.6 µM (inactive) | 5.57 µM (inactive) | 26.6 µM (inactive) | 27.5 µM (inactive) | 30.4 µM (inactive) | 31.6 µM (inactive) | 15.2 µM (inactive) | 48.9 µM (inactive) | 37.8 µM (inactive) | 44.1 µM (inactive) | 19.8 µM (inactive) | 32 µM (inactive) | 36.1 µM (inactive) | 7.4 µM (inactive) | > 100 µM (inactive) | 32.9 µM (inactive) | 30.5 µM | –
4 | CCCCCCCCCCCCOC(=S)NC | 17.7 µM (inactive) | 29.9 µM (inactive) | 18.1 µM (inactive) | 15.5 µM (inactive) | 27.5 µM (inactive) | 17.1 µM (inactive) | 14.1 µM (inactive) | 19 µM (inactive) | 14.1 µM (inactive) | 24.1 µM (inactive) | 20 µM (inactive) | 25.9 µM (inactive) | 18.6 µM (inactive) | – | 21.6 µM (inactive) | 18.3 µM (inactive) | 22.2 µM (inactive) | 20.3 µM (inactive) | 17.8 µM | –
5 | COC1C=C(Nc2cccc(Cl)c2)C(=O)C1 (centres undefined) | 64.9 µM (inactive) | 43.9 µM (inactive) | 15.7 µM (inactive) | 39.5 µM (inactive) | 24.9 µM (inactive) | 60 µM (inactive) | > 100 µM (inactive) | > 100 µM (inactive) | 58.3 µM (inactive) | > 100 µM (inactive) | 60 µM (inactive) | 54 µM (inactive) | 96.2 µM (inactive) | 18.5 µM (inactive) | > 100 µM (inactive) | 53.2 µM (inactive) | > 100 µM (inactive) | > 100 µM (inactive) | – | –
6 | COc1ccc(N2C(=O)C3c4[nH]c5ccccc5c4C4CCCCC4C3C2=O)cc1 (centres undefined) | 25.5 µM (inactive) | 3.5 µM (inactive) | 24.6 µM (inactive) | 18.2 µM (inactive) | 18 µM (inactive) | 10.3 µM (inactive) | 20 µM (inactive) | 11.1 µM (inactive) | 11.7 µM (inactive) | 5.4 µM (inactive) | 22.5 µM (inactive) | 11.3 µM (inactive) | 11 µM (inactive) | 18.3 µM (inactive) | 5.56 µM (inactive) | 29.1 µM (inactive) | 15 µM (inactive) | 27.8 µM (inactive) | > 100 µM | –
7 | COc1cc2c(cc1OC)C1[C@@H](c3ccccc3)OCN1CC2 (some centres undefined) | > 100 µM (inactive) | 60.8 µM (inactive) | > 100 µM (inactive) | 83.4 µM (inactive) | > 100 µM (inactive) | > 100 µM (inactive) | > 96.2 µM (inactive) | > 100 µM (inactive) | > 88.7 µM (inactive) | > 100 µM (inactive) | > 100 µM (inactive) | > 100 µM (inactive) | > 100 µM (inactive) | > 100 µM (inactive) | > 100 µM (inactive) | 56.8 µM (inactive) | > 100 µM (inactive) | > 100 µM (inactive) | > 90.6 µM | –
8 | Nc1n2nc(-c3ccccc3)sc2n[n+]1CC(=O)c1ccccc1 | 27.6 µM (inactive) | 26.3 µM (inactive) | 25.1 µM (inactive) | – | 15.8 µM (inactive) | 7.06 µM (inactive) | 11.1 µM (inactive) | 19.9 µM (inactive) | – | 47.2 µM (inactive) | 12.9 µM (inactive) | 14 µM (inactive) | 15.1 µM (inactive) | 21.2 µM (inactive) | > 10 µM (inactive) | 4.89 µM (inactive) | 14 µM (inactive) | 26.1 µM (inactive) | 12.9 µM | 30.4 µM (inactive)
9 | COc1ccc2nc(C(=O)c3ccccc3)c(C)cc2c1 | 6.84 µM (inactive) | 2.96 µM (inactive) | 2.74 µM (inactive) | 7.13 µM (inactive) | 1.88 µM (inactive) | 5.26 µM (inactive) | 5.43 µM (inactive) | 7.03 µM (inactive) | 2.81 µM (inactive) | 97.1 µM (inactive) | 10 µM (inactive) | 2.81 µM (inactive) | 5.31 µM (inactive) | 6.28 µM (inactive) | 2.94 µM (inactive) | 2.81 µM (inactive) | 6.47 µM (inactive) | 4.14 µM (inactive) | 3.3 µM | –
10 | O=C(CC/C(CC(=O)c1ccc(Br)cc1)=N\O)Nc1ccc(Cl)c(Cl)c1 | > 100 µM (inactive) | 23.8 µM (inactive) | 36.3 µM (inactive) | 68.2 µM (inactive) | 20.5 µM (inactive) | 27.2 µM (inactive) | > 100 µM (inactive) | > 100 µM (inactive) | 40.3 µM (inactive) | 64 µM (inactive) | 65 µM (inactive) | > 100 µM (inactive) | > 100 µM (inactive) | > 100 µM (inactive) | > 100 µM (inactive) | 45.2 µM (inactive) | > 100 µM (inactive) | 44.4 µM (inactive) | 86.7 µM | –
11 | O=C(O)CC(O)(c1ccccc1C(=O)O)c1cccc2ccccc12 (centres undefined) | > 100 µM (inactive) | > 100 µM (inactive) | > 100 µM (inactive) | > 100 µM (inactive) | > 100 µM (inactive) | > 100 µM (inactive) | > 100 µM (inactive) | > 100 µM (inactive) | > 100 µM (inactive) | > 100 µM (inactive) | > 100 µM (inactive) | > 100 µM (inactive) | > 100 µM (inactive) | > 100 µM (inactive) | > 100 µM (inactive) | > 100 µM (inactive) | > 100 µM (inactive) | > 100 µM (inactive) | > 100 µM | –
